Read-outs that look alike come from different tables or passages of the source. Each block holds one compound with its values, some of them ahead of it.
What was measured:
[1] = Chemical stability: assay of adapalene by internal calibration in HPLC; type: physicochemical; settings: composition of Example 2 a); AT; T 3 months
Description: Assay of the active by internal calibration in HPLC.
At the starting time (T0) the composition is considered to contain 100% of adapalene. Concentration of adapalene measured in % relative to T0: […]

[2] = in presence of the formulation based on benzoyl peroxide, cited from earlier work; for Retinoid degraded: calculated
[3] = in PEG 400 and ethanol; cited from earlier work
[4] = cited from earlier work; for Degradation time: 40° C.
[5] = Chemical stability: assay of benzoyl peroxide by internal calibration in HPLC; type: physicochemical; settings: composition of Example 2 a)
Description: Benzoyl Peroxide: Assay of the active by internal calibration in HPLC. At the starting time (T0) the composition is considered to contain 100% of benzoyl peroxide. Concentration of benzoyl peroxide measured in % relative to T0: […]

Concentration of adapalene measured in % relative to T0 [1]: 97.7%
SMILES: COc1ccc(-c2ccc3cc(C(=O)O)ccc3c2)cc1C12CC3CC(CC(C3)C1)C2 [Adapalene, 6-(3-(1-adamantyl)-4-methoxyphenyl)-2-naphthoic acid]
Degradation of the retinoid ([2]; over 24 hours): no degradation

SMILES: O=C(OOC(=O)c1ccccc1)c1ccccc1 [Benzoyl Peroxide, benzoyl peroxide]
Solubility [3]: particularly soluble
Degradation time ([4]; in solution in PEG 400 (0.5 mg/g)): 1.4 days
Degradation time ([4]; in solution in ethanol): 29 days
Degradation time ([4]; in solution in propylene glycol): 53 days
Degradation in suspension (dispersed form) ([4]; in water and propylene glycol, kept for 90 days): not degraded
Concentration of benzoyl peroxide measured in % relative to T0 ([5]; 40° C., T 1 month): 96.3%
Concentration of benzoyl peroxide measured in % relative to T0 ([5]; 40° C., T 2 months): 81.6%
Concentration of benzoyl peroxide measured in % relative to T0 ([5]; 40° C., T 3 months): 88.7%
Concentration of benzoyl peroxide measured in % relative to T0 ([5]; AT, T 0): 99.2%
Concentration of benzoyl peroxide measured in % relative to T0 ([5]; AT, T 3 months): 94.8%

SMILES: CC1=C(/C=C/C(C)=C/C=C/C(C)=C/C(=O)O)C(C)(C)CCC1 [tretinoin]
Retinoid degraded ([2]; in 2 hours): 50%
Retinoid degraded ([2]; in 24 hours): 95%

Source: patent publication US20110318396A1, “DERMATOLOGICAL/COSMETIC COMPOSITIONS COMPRISING A RETINOID AND BENZOYL PEROXIDE” (Galderma Research & Development, priority 2006, published 2011)
